Data from patent US8309129B2, “Nanoparticles comprising a drug, ethylcellulose, and a bile salt” (Bend Research, Inc., priority 2007, dated 2012).
In brackets after ≈: the same amount, converted by molar mass. Where two headings read alike, the source gives them in different places.

Columns and labels:
Type in all cases: physicochemical
Solubility of the drug = assay: Solubility of the drug
[1] = Dynamic light scattering (DLS) of aqueous nanoparticle suspension as formed; conditions: Tables 5 and 6; valdecoxib suspension samples
From the text: The nanoparticles are small particles comprising the drug, ethylcellulose, and a bile salt. By “nanoparticles” is meant a plurality of small particles in which the average size of the particles in suspension is less than about 500 nm. By “average size” is meant the effective cumulant diameter as measured by dynamic light scattering, using for example, Brookhaven Instruments' 90Plus particle sizing instrument. By “size” is meant the diameter for spherical particles, or the maximum diameter for non-spherical particles. Preferably, the average size of the nanoparticles is less than 400 nm, more preferably less 300 nm, more preferably less than 150 nm, more preferably less than 100 nm, and most preferably less than 75 nm.
The width of the particle size distribution in suspension is given by the “polydispersity” of the particles, which is defined as the relative variance in the correlation decay rate distribution, as is known by one skilled in the art. […]
The particle size of the nanoparticles in the aqueous suspension was determined using dynamic light scattering (DLS) as follows. […] Dynamic light-scattering was measured using a Brookhaven Instruments (Holtsville, N.Y.) BI-200SM particle size analyzer with a BI-9000AT correlator. The sums of exponentials from the autocorrelation functions were analyzed using CONTIN software to extract size distributions from the samples. […]

Measurement of free drug = assay: Measurement of free drug
Description: In one embodiment, the compositions of the present invention are capable of improving the concentration of dissolved drug in a use environment relative to a control composition consisting essentially of the drug alone without any ethylcellulose or bile salt. In order to determine concentration enhancement in vitro, the amount of “free” drug, or solvated drug is measured. By “free” drug is meant drug which is in the form of dissolved drug or present in micelles, but which is not in the nanoparticles or any solid particles larger than 500 nm, such as precipitate. A composition of the invention provides concentration enhancement if, when administered to an aqueous use environment, it provides a free drug concentration that is at least 1.25-fold the free drug concentration provided by the control composition. Preferably, the free drug concentration provided by the compositions of the invention are at least about 1.5-fold, more preferably at least about 2-fold, and most preferably at least about 3-fold that provided by the control composition.
The amount of free drug provided by a suspension of the nanoparticles of Example 11 was measured using the following procedure. […]
The amount of free drug provided by a suspension of the nanoparticles of Example 12 was measured as follows. […]

[2] = Nanoparticle dissolution test of valdecoxib in Hank's buffer; conditions: percent of total drug released per minute, 10 μg/mL, 37° C.
Description: The dissolution rate of valdecoxib from nanoparticles of Example 12 was measured using the dissolution test as follows. The spray-dried composition of Example 12 were added to Hank's buffer to obtain a valdecoxib concentration of about 1 mgA/mL. The suspension was diluted to 10 μg/mL by adding 0.2 mL suspension to 20 mL buffer. The diluted suspension was placed on a shaker table in a 37° C. chamber, and aliquots were removed at 2, 5, and 10 minutes. The aliquots were centrifuged for 5 minutes at 12,000 rpm using a 30,000-dalton molecular-weight cutoff centrifuge tube filter, and 100 μL of the supernatant was added to 250 μL acetonitrile. The samples were assayed by HPLC. Crystalline drug alone was tested for comparison. The dissolution rate for nanoparticles of the invention was 3.6 times that of crystalline drug alone.

[3] = MFD solution, fassgf or other biorelevant, read-out: solubility in MFD solution
[4] = water, read-out: solubility in water

SMILES	solubility (Solubility of the drug; [3]) [µg/mL]	solubility (Solubility of the drug; [4]) [µg/mL]	other results
Cc1ccc(-c2cc(C(F)(F)F)nn2-c2ccc(S(N)(=O)=O)cc2)cc1 [Drug 1, 4-[5-(4-methylphenyl)-3-(trifluoromethyl)-1H-pyrazol-1-yl]benzenesulfonamide]	~40 (≈ 105 µM)		
Cc1onc(-c2ccccc2)c1-c1ccc(S(N)(=O)=O)cc1 [Drug 2, 4-(5-methyl-3-phenyl-4-isoxazolyl)benzenesulfonamide]		~10 (≈ 31.8 µM)	
Cc1onc(-c2ccccc2)c1-c1ccc(S(N)(=O)=O)cc1 [Crystalline Valdecoxib, valdecoxib]			Average Particle Size [1]: >1000 nm; Free Drug (Measurement of free drug; Table 5, aqueous suspension prior to spray-drying, 100,000-dalton cutoff filtrate): 11 µg/mL; Free Drug (Measurement of free drug; Table 6, spray-dried composition in dextrose solution, 100,000-dalton cutoff filtrate): 11 µg/mL; Dissolution Rate [2]: 5.0 %/min

Further lines, with some results ahead:

solubility (Solubility of the drug; [3]) [µg/mL]	solubility (Solubility of the drug; [4]) [µg/mL]	SMILES	other results
~11 (≈ 18.4 µM)		CC[C@@H]1C[C@H](N(Cc2cc(C(F)(F)F)cc(C(F)(F)F)c2)C(C)=O)c2cc(C(F)(F)F)ccc2N1C(=O)OC(C)C [Drug 4, [2R,4S]4-[acetyl-(3,5-bis-trifluoromethyl-benzyl)-amino]-2-ethyl-6-trifluoromethyl-3,4-dihydro-2H-quinoline-1-carboxylic acid isopropyl ester]	
	< 0.1	CCOC(=O)N1c2ccc(C(F)(F)F)cc2[C@@H](N(Cc2cc(C(F)(F)F)cc(C(F)(F)F)c2)C(=O)OC)C[C@H]1CC [Drug 3, [2R,4S]4-[(3,5-bis-trifluoromethyl-benzyl)-methoxycarbonyl-amino]-2-ethyl-6-trifluoromethyl-3,4-dihydro-2H-quinoline-1-carboxylic acid ethyl ester]	
